Data on 24 molecules can be found in patent publication US9174980B2, “Heterocyclic compounds as inhibitors of leukotriene production” (Boehringer Ingelheim International GmbH, priority 2012, dated 2015).

The target of assay [1] is T1, recombinant human FLAP protein (Homo sapiens, UniProt P20292).
T1 construct: made in house; host or cells: Sf9 insect cells (membrane fraction, 100,000 x g pellet)
T1 sequence (P20292 1-161): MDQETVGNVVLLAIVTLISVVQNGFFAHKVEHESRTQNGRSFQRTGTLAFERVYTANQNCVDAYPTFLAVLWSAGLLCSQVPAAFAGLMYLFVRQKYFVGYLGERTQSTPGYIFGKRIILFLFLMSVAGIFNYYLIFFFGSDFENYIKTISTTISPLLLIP
Briefly: FLAP binding assay (Scintillation Proximity Assay, displacement of [125I]L-691,831). The settings on record: read-out: Human FLAP SPA Binding (IC50 nM). As for the experimental part:
Compounds are assessed for the ability to bind to FLAP in a binding assay that measures compound-specific displacement of an iodinated (^125I) FLAP inhibitor via a Scintillation Proximity Assay format (adapted from S. Charleson et al., Mol. Pharmacol., 1992, 41, 873-879).
Cell pellets produced from sf9 insect cells expressing recombinant human FLAP protein are resuspended in buffer A [15 mM Tris-HCl (pH 7.5), 2 mM MgCl2, 0.3 mM EDTA, 1 mM PMSF]. The cells are lysed with a Dounce homogenizer and the material is centrifuged at 10,000×g for 10 minutes. The supernatant is then collected and centrifuged at 100,000×g for 60 minutes. To prepare membrane protein for an assay, an aliquot of the 100,000×g pellet is resuspended in 1 ml of buffer A, Dounce homogenized, and finally subjected to polytron mixing (30 seconds). Membrane protein (25 μl, 5 μg) is mixed with WGA SPA beads (Amersham) and stirred for 1 h. To an assay plate (Perkin Elmer FlexiPlate) is added 25 μl of test compound prepared in Binding buffer [100 mM Tris (pH 7.5), 140 mM NaCl, 5% glycerol, 2 mM EDTA, 0.5 mM TCEP, 0.05% Tween 20], 25 μl of [^125I]L-691,831 (an iodinated analog of MK-591, Charleson et al. Mol. Pharmacol., 41, 873-879, 1992) and finally 50 μl of the bead/protein mixture. (final concentrations: beads, 200 μg/well; protein, 5 μg/well; [^125I] probe, 0.08 nM/well (17 nCi/well). The plates are shaken for 2 h before reading on a Microbeta plate reader. Non-specific binding is determined by the addition of 10 μM cold L-691,831 compound.
For orientation: Scintillation proximity formats need no separation of bound from free tracer.

The test system of assay [2] is synthesis of LTB4 in human whole blood. Briefly: Human whole blood assay (calcimycin-stimulated LTB4 synthesis). It counts as cell-based. The note with it: Homo sapiens; read-out: Human Whole Blood LTB4 Assay for FLAP (IC50 nM). As for the experimental part:
Compounds are additionally tested in a human whole blood assay to determine their ability to inhibit the synthesis of LTB4 in a cellular system. Compounds are combined with heparinized human whole blood and incubated for 15 minutes at 37° C. Calcimycin (20 μM final, prepared in phosphate-buffered saline, pH 7.4) is then added and the mixture is incubated for another 30 minutes at 37° C. The samples are centrifuged for 5 min at low speed (1500×g) and the plasma layer is removed. Plasma LTB4 concentrations are then measured using an antibody-based homogenous time-resolved fluorescence method (CisBio, Bedford, Mass.).

A word on the IC50: it is the concentration needed to halve the response being measured. On to `Nc1ncc(-c2ccc(C3(c4c[nH]c5cc(C(=O)NC6CCS(=O)(=O)C6)ccc45)CCC3)cc2)cn1` (stereo not drawn) [Example 1, 3-{1-[4-(2-aminopyrimidin-5-yl)phenyl]cyclobutyl}-N-(1,1-dioxidotetrahydrothiophen-3-yl)-1H-indole-6-carboxamide], for which the IC50 in assay [1] worked out at 1.3 nM; in assay [2], 1300 nM.

In the case of `CN(CCS(C)(=O)=O)C(=O)c1cccc2c(C3(c4ccc(-c5cnc(N)nc5)cc4)CCC3)c[nH]c12` [Example 2, 3-{1-[4-(2-aminopyrimidin-5-yl)phenyl]cyclobutyl}-N-methyl-N-[2-(methylsulfonyl)ethyl]-1H-indole-7-carboxamide], the IC50 was found to be 1.9 nM in assay [1] and 490 nM in assay [2].

In the case of `CS(=O)(=O)CCNC(=O)c1cccc2c(C3(c4ccc(-c5cnc(N)nc5)cc4)CCC3)c[nH]c12` [Example 3, 3-{1-[4-(2-aminopyrimidin-5-yl)phenyl]cyclobutyl}-N-[2-(methylsulfonyl)ethyl]-1H-indole-7-carboxamide], the IC50 was 1.4 nM in assay [1] and 490 nM in assay [2].

On to `Nc1ncc(-c2ccc(C3(c4c[nH]c5c(C(=O)NCCS(N)(=O)=O)cccc45)CCC3)cc2)cn1` [Example 4, 3-{1-[4-(2-aminopyrimidin-5-yl)phenyl]cyclobutyl}-N-(2-sulfamoylethyl)-1H-indole-7-carboxamide], for which the IC50 in assay [1] is 1.2 nM; in assay [2], 2800 nM.

For the molecule `Nc1ncc(-c2ccc(C3(c4c[nH]c5c(C(=O)NC6CCS(=O)(=O)C6)cccc45)CCC3)cc2)cn1` (stereo not drawn) [Example 5, 3-{1-[4-(2-aminopyrimidin-5-yl)phenyl]cyclobutyl}-N-(1,1-dioxidotetrahydrothiophen-3-yl)-1H-indole-7-carboxamide], the IC50 is 0.72 nM in assay [1] and 220 nM in assay [2].

Turning to `CNC(=O)c1cccc2c(C3(c4ccc(-c5cnc(N)nc5)cc4)CCC3)c[nH]c12` [Example 6, 3-[1-[4-(2-aminopyrimidin-5-yl)phenyl]cyclobutyl]-N-methyl-1H-indole-7-carboxamide], the IC50 in assay [1] stood at 1.5 nM; in assay [2] it was 29 nM.

For `CN(C)C(=O)c1cccc2c(C3(c4ccc(-c5cnc(N)nc5)cc4)CCC3)c[nH]c12` [Example 7, 3-{1-[4-(2-aminopyrimidin-5-yl)phenyl]cyclobutyl}-N,N-dimethyl-1H-indole-7-carboxamide], the IC50 in assay [1] was 2.1 nM; in assay [2], 210 nM.

In the case of `Cc1ccc(-c2coc(C3(c4ccc(-c5cnc(N)nc5)cc4)CCC3)n2)cn1` [Example 8, 5-(4-{1-[4-(6-methylpyridin-3-yl)-1,3-oxazol-2-yl]cyclobutyl}phenyl)pyrimidin-2-amine], the values for the concentration for half-maximal inhibition (IC50) in assay [1] and in assay [2] were 2.8 nM and 410 nM, respectively.

In the case of `Cc1nc(CNC(=O)c2cccc3c(C4(c5ccc(-c6cnc(N)nc6)cc5)CCC4)c[nH]c23)no1` [Example 9, 3-{1-[4-(2-aminopyrimidin-5-yl)phenyl]cyclobutyl}-N-[(5-methyl-1,2,4-oxadiazol-3-yl)methyl]-1H-indole-7-carboxamide], the values for the IC50 in assay [1] and in assay [2] were 2.2 nM and 27 nM, respectively.

`CCc1nc(CN(C)C(=O)c2cccc3c(C4(c5ccc(-c6cnc(N)nc6)cc5)CCC4)c[nH]c23)no1` [Example 10, 3-{1-[4-(2-aminopyrimidin-5-yl)phenyl]cyclobutyl}-N-[(5-ethyl-1,2,4-oxadiazol-3-yl)methyl]-N-methyl-1H-indole-7-carboxamide]: the figures for the IC50 in assay [1] and in assay [2] were 2.4 nM and 340 nM, respectively.

For the molecule `Cc1nnc(CN(C)C(=O)c2cccc3c(C4(c5ccc(-c6cnc(N)nc6)cc5)CCC4)c[nH]c23)o1` [Example 11, 3-{1-[4-(2-aminopyrimidin-5-yl)phenyl]cyclobutyl}-N-methyl-N-[(5-methyl-1,3,4-oxadiazol-2-yl)methyl]-1H-indole-7-carboxamide], the IC50 in assay [1] is 3.3 nM; in assay [2] it was 230 nM.

In the case of `CCc1noc(CN(CC)C(=O)c2cccc3c(C4(c5ccc(-c6cnc(N)nc6)cc5)CCC4)c[nH]c23)n1` [Example 12, 3-{1-[4-(2-aminopyrimidin-5-yl)phenyl]cyclobutyl}-N-ethyl-N-[(3-ethyl-1,2,4-oxadiazol-5-yl)methyl]-1H-indole-7-carboxamide], the half-inhibitory concentration (IC50) in assay [1] stood at 2.7 nM; in assay [2], 680 nM.

For the molecule `Cc1cc(CN(C)C(=O)c2cccc3c(C4(c5ccc(-c6cnc(N)nc6)cc5)CCC4)c[nH]c23)[nH]n1` [Example 13, 3-{1-[4-(2-aminopyrimidin-5-yl)phenyl]cyclobutyl}-N-methyl-N-[(3-methyl-1H-pyrazol-5-yl)methyl]-1H-indole-7-carboxamide], the IC50 in assay [1] is 1.4 nM; in assay [2], 320 nM.

For the molecule `Cc1ccc(-c2cnc(C3(c4ccc(-c5cnc(N)nc5)cc4)CCC3)[nH]2)cn1` [Example 14, 5-(4-{1-[5-(6-methylpyridin-3-yl)-1H-imidazol-2-yl]cyclobutyl}phenyl)pyrimidin-2-amine], the IC50 in assay [1] was 30 nM; in assay [2], more than 5000 nM.

On to `Cc1ccc(-c2cnc(C3(c4ccc(-c5cnc(N)nc5)cc4)CCC3)s2)cn1` [Example 15, 5-(4-{1-[5-(6-methylpyridin-3-yl)-1,3-thiazol-2-yl]cyclobutyl}phenyl)pyrimidin-2-amine], for which the IC50 in assay [1] amounted to 1.8 nM; in assay [2] it was 220 nM.

In the case of `Cc1ccc(-c2cnc(C3(c4ccc(-c5cnc(N)nc5)cc4)CCC3)o2)cn1` [Example 16, 5-(4-{1-[5-(6-methylpyridin-3-yl)-1,3-oxazol-2-yl]cyclobutyl}phenyl)pyrimidin-2-amine], the IC50 in assay [1] amounted to 7.1 nM; in assay [2] it was 1400 nM.

Regarding `Cc1cc(CN(C)C(=O)c2cccc3c(C4(c5ccc(-c6cnc(N)nc6)cc5)CCC4)c[nH]c23)no1` [Example 17, 3-{1-[4-(2-aminopyrimidin-5-yl)phenyl]cyclobutyl}-N-methyl-N-[(5-methyl-1,2-oxazol-3-yl)methyl]-1H-indole-7-carboxamide], the IC50 in assay [1] came to 3.4 nM; in assay [2] it was 250 nM.

For the molecule `Cc1ccc(-c2cc(C3(c4ccc(-c5cnc(N)nc5)cc4)CCC3)[nH]n2)cn1` [Example 18, 5-(4-{1-[5-(6-methylpyridin-3-yl)-1H-pyrazol-3-yl]cyclobutyl}phenyl)pyrimidin-2-amine], the half-maximal inhibitory concentration (IC50) in assay [1] was found to be 4 nM; in assay [2], 680 nM.

`Cc1ccc(-c2cc(C3(c4ccc(-c5cnc(N)nc5)cc4)CCC3)n(C)n2)cn1` [Example 19, 5-(4-{1-[1-methyl-3-(6-methylpyridin-3-yl)-1H-pyrazol-5-yl]cyclobutyl}phenyl)pyrimidin-2-amine]: the IC50 in assay [1] was 510 nM; in assay [2] it was more than 5000 nM.

For `Cc1ccc(-c2cc(C3(c4ccc(-c5cnc(N)nc5)cc4)CCC3)nn2C)cn1` [Example 20, 5-(4-{1-[1-methyl-5-(6-methylpyridin-3-yl)-1H-pyrazol-3-yl]cyclobutyl}phenyl)pyrimidin-2-amine], the IC50 in assay [1] was 5.1 nM; in assay [2], 430 nM.

Take `CC(C)C(C)(c1ccc(-c2cnc(N)nc2)cc1)c1nc(N2CCNCC2)no1` (stereo not drawn) [Example 21, 5-[4-[1,2-dimethyl-1-(3-piperazin-1-yl-1,2,4-oxadiazol-5-yl)propyl]phenyl]pyrimidin-2-amine; formic acid]: the IC50 in assay [1] came to 38 nM; in assay [2], 1600 nM.

In the case of `CC(C)C(C)(c1ccc(-c2cnc(N)nc2)nc1)c1nc(-c2cnn(C)c2)no1` (stereo not drawn) [Example 22, 5-(5-{3-methyl-2-[3-(1-methyl-1H-pyrazol-4-yl)-1,2,4-oxadiazol-5-yl]butan-2-yl}pyridin-2-yl)pyrimidin-2-amine], the IC50 worked out at 44 nM in assay [1] and 710 nM in assay [2].

As for `COc1cncc(-c2ccc(C(c3ncc(Br)s3)C(C)C)cc2)c1` (stereo not drawn) [Example 24, 5-bromo-2-[1-[4-(5-methoxy-3-pyridyl)phenyl]-2-methyl-propyl]thiazole], the IC50 in assay [1] is 890 nM; in assay [2], more than 5000 nM.

Regarding `COc1cncc(-c2ccc(C(c3ncc(-c4ccc(CO)nc4)s3)C(C)C)cc2)c1` (stereo not drawn) [Example 25, [5-(2-{1-[4-(5-methoxypyridin-3-yl)phenyl]-2-methylpropyl}-1,3-thiazol-5-yl)pyridin-2-yl]methanol], the IC50 is 36 nM in assay [1] and more than 5000 nM in assay [2].
